In ChEMBL document CHEMBL1201862, “PubChem BioAssay data set” (2004):
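Dose response: 5 concentrations. Exposure: 48 h. Format: 96-well plates. Endpoint: linear interpolation; highest concentration if not reached. The concentration for 50% growth inhibition is given as GI50.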 The source made the active and inactive calls. No stated cut-off is given here; in the data, active = GI50 up to about 1.1 µM and inactive = higher.

What was measured:
Assay in all cases: inhibition of tumour cell growth, NCI panel, 48 h
[1] = tested on: SK-MEL-28
[2] = tested on: HL-60
[3] = tested on: SF-539
[4] = tested on: SK-OV-3
[5] = tested on: COLO 205
[6] = tested on: EKVX
[7] = tested on: SK-MEL-5
[8] = tested on: OVCAR-8
[9] = tested on: MOLT-4
[10] = tested on: Malme-3M
[11] = tested on: SF-295
[12] = tested on: IGROV-1
[13] = tested on: NCI-H226
[14] = tested on: HOP-92
[15] = tested on: M14
[16] = tested on: SF-268
[17] = tested on: KM12
[18] = tested on: A498

Measured: GI50

Cc1ccc(NC(=O)CCC(=O)C2CC(=O)CCC2=O)cc1C (centres undefined)
inactive: [1] > 100 µM | [2] > 100 µM | [3] > 100 µM | [4] > 100 µM | [5] > 100 µM | [6] > 100 µM | [7] > 100 µM | [8] > 100 µM | [9] > 100 µM | [10] > 100 µM | [11] > 100 µM | [12] > 100 µM | [13] > 100 µM | [14] 76.4 µM | [15] > 100 µM | [16] > 100 µM | [17] > 100 µM

CC(=O)O[C@H]1CC[C@@]2(C)C(=CC[C@@H]3C2CC[C@]2(C)Nc4oncc4CC32)C1 (some centres undefined)
inactive: [1] 37.2 µM | [2] 11.7 µM | [3] 44.9 µM | [4] 96.6 µM | [6] > 100 µM | [7] 17.8 µM | [8] 34.6 µM | [9] 10.7 µM | [18] 40.6 µM | [10] 25.3 µM | [11] 32.6 µM | [12] 28.1 µM | [13] 15 µM | [15] 31.8 µM | [17] 22.6 µM

Cn1cc2ccccc2c1-c1nc(F)nc(Oc2ccc3c(c2)CC[C@@H]2C3CC[C@@]3(C)C2C[C@H](O)[C@@H]3O)n1 (some centres undefined)
inactive: [1] 19.7 µM | [2] 22.4 µM | [3] 13.5 µM | [4] 21.9 µM | [5] 17.7 µM | [6] 17.7 µM | [7] 17.7 µM | [8] 15.8 µM | [9] 5.43 µM | [18] 27.3 µM | [10] 24.8 µM | [11] 17.6 µM | [12] 20.7 µM | [14] 22.3 µM | [15] 15.9 µM | [16] 13.1 µM | [17] 17.7 µM

CN/N=C(/CC(=O)c1sc(NNC(C)=O)nc1C)C(=O)Nc1ccc(OC)cc1OC
inactive: [1] > 100 µM | [2] > 100 µM | [3] > 100 µM | [5] > 100 µM | [6] 59.7 µM | [7] > 100 µM | [8] > 100 µM | [9] > 100 µM | [18] > 100 µM | [10] > 100 µM | [11] > 100 µM | [12] > 100 µM | [13] > 100 µM | [14] > 100 µM | [15] > 100 µM | [16] > 100 µM | [17] > 100 µM

NC(=O)c1ccccc1NC(=O)C(=O)Cc1nc2ccccc2nc1O
inactive: [1] > 100 µM | [2] > 100 µM | [3] 48.5 µM | [4] > 100 µM | [5] > 100 µM | [6] > 100 µM | [7] > 100 µM | [8] 50 µM | [9] > 100 µM | [18] > 100 µM | [10] > 100 µM | [11] > 100 µM | [12] > 100 µM | [14] 98.6 µM | [15] > 100 µM | [16] > 100 µM | [17] 71.8 µM

O=[N+]([O-])c1ccc(-c2csc(=[N+]3CCCCC3)s2)cc1
inactive: [1] 36.5 µM | [2] > 53.2 µM | [3] 19.8 µM | [4] 37.7 µM | [5] 2.26 µM | [6] 18 µM | [7] 5.85 µM | [8] 3.48 µM | [9] 5.38 µM | [18] 2.18 µM | [10] 12.1 µM | [11] 2.71 µM | [12] 4.48 µM | [14] 26.1 µM | [15] 36.1 µM | [16] 3.93 µM | [17] 4.13 µM

NC(=S)NNC(=S)NC(=O)c1ccco1
inactive: [1] > 10 µM | [2] > 10 µM | [4] > 10 µM | [6] > 10 µM | [7] > 10 µM | [8] > 10 µM | [9] > 10 µM | [10] > 10 µM | [12] > 10 µM | [13] > 10 µM | [14] > 10 µM | [15] > 10 µM | [16] > 10 µM | [17] > 10 µM

Cc1ccc(C(O)/C(=N/N)c2nc3ccc([N+](=O)[O-])cc3nc2O)cc1 (centres undefined)
inactive: [1] > 100 µM | [2] 27 µM | [4] > 100 µM | [5] > 100 µM | [7] 43.2 µM | [8] > 100 µM | [9] > 100 µM | [10] > 100 µM | [11] > 100 µM | [12] > 100 µM | [13] > 100 µM | [14] > 100 µM | [15] > 100 µM | [16] 74.6 µM | [17] 51.8 µM
